# According to paper PMC8160813, “Design, Synthesis, and Evaluation of Dihydropyranopyrazole Derivatives as Novel PDE2 Inhibitors for the Treatment of Alzheimer’s Disease” (Molecules, 2021):
# Molecular target: T1, PDE2A (catalytic domain, 580–919) (Homo sapiens, UniProt O00408)
# T1 construct: made in house; host or cells: E. coli BL21 (CodonPlus)
# Assay: In vitro PDE2 enzymatic inhibition assay (3H-cGMP substrate)
# Assay type: biochemical
# Conditions: for inhibition at 0.1 µM / inhibition at 0.5 µM / Inhibition Ratio (%) 0.5 μM: PDE2; for inhibition at 0.1 µM: compound at 0.1 μM, read-out: Inhibition Ratio (%) 0.1 μM; for inhibition at 0.5 µM / Inhibition Ratio (%) 0.5 μM: compound at 0.5 μM; for inhibition at 0.5 µM: read-out: Inhibition Ratio (%) 0.5 μM; for IC50: means ± SD of three experiments, 3H-cGMP, 25 °C, 15 min, read-out: IC50 (nM) against PDE2
# Description: Purification and expression of the recombinant pET15b-PDE2A plasmid (catalytic domain, 580–919) was performed following our previously reported method. The plasmid pET15b-PDE2A (catalytic domain, 580–919) was transferred to thawed competent E. coli BL21 cells (CodonPlus, Agilent Technologies, Santa Clara, CA, USA), which were grown in 2XYT medium with 100 μg/mL ampicillin and 20 μg/mL chloramphenicol at 37 °C until OD600 = 0.6–0.8. Then, 0.1 mM isopropylthiogalactoside was added for induction, and protein expression was induced by continuing to grow the cells at 16 °C for 24 h. After that, bacteria were collected by centrifugation and frozen overnight at −20 °C. The bacteria containing the recombinant plasmid of the target protein were subjected to cell disruption and passed through a Ni-NTA agarose affinity column, Q-Sepharose ion-exchange column and other steps. The purity can be 95% or more, and a typical purification batch produces 10–20 mg of PDE2A protein from 1.0 L of cell culture.
# Using the appropriate concentration of ^3H-cGMP as the substrate, different compound solutions were added to the test group, DMSO was added to the negative control and blank control groups, and EHNA was added to the positive control group, followed by protein solution (the proteins were all diluted with Assay Buffer); Assay Buffer was added to the blank group. The enzymatic reaction was performed at room temperature (25 °C) for 15 min, and then, 0.2 M ZnSO4 was added to inactivate PDE2 and to stop the reaction. Then, 0.2 N Ba(OH)2 solution was added to precipitate the reaction product, and unreacted ^3H-cGMP remained in the supernatant. After mixing the system, it was centrifuged. The radioactivity of the supernatant was measured with a liquid scintillation counter, and the inhibitory activity of the compound against PDE2 was calculated. The above test was repeated three times (the IC50 test generally used 9 concentrations, and the single-point test was directly diluted with DMSO to the required concentration).
# T1 sequence (O00408 580-919): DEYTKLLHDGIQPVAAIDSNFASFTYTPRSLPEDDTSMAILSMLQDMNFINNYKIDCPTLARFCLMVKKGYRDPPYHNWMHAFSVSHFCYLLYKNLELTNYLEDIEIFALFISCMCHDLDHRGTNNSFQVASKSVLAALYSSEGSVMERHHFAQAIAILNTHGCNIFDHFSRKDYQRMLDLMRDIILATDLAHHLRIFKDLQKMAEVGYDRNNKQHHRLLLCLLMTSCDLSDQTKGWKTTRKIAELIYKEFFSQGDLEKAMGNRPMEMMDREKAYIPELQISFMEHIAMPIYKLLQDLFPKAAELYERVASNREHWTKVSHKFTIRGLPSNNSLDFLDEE
Structure (SMILES),inhibition at 0.5 µM [%],other results
"COc1ccc(OCc2ccc(C(F)(F)F)cc2)c(C2C(C#N)=C(N)Oc3[nH]nc(C)c32)c1 (racemic) [Compound 11h, 6-Amino-4-(5-methoxy-2-((4-(trifluoromethyl)benzyl)oxy)phenyl)-3-methyl-1,4-dihydropyrano[2,3-c]pyrazole-5-carbonitrile]",87.3,inhibition at 0.1 µM: 63.3%; IC50: 75.5 ± 2 nM
"CCCCCC[C@@H]([C@@H](C)O)n1cnc2c(N)ncnc21 (racemic) [EHNA, erythro-9-(2-hydroxy-3-nonyl) adenine, reference compound]",,IC50: 2460 nM
"COc1ccc(OCc2ccc(C(F)(F)F)cc2)c(C2C(C#N)=C(N)Oc3[nH]nc(C)c32)c1 (single isomer, unassigned; (-)) [(−)-11h]",87.3,PDE2 inhibitory activity of resolved isomer (in words) (after chiral resolution of 11h): almost inactive
"COc1ccc(C2C(C#N)=C(N)Oc3[nH]nc(C)c32)cc1OCc1ccc(Cl)cc1 (centres unmarked) [4a (LZ77), 6-Amino-4-(3-((4-chlorobenzyl)oxy)-4-methoxyphenyl)-3-methyl-1,4-dihydropyrano[2,3-c]pyrazole-5-carbonitrile]",57.2,inhibition at 0.1 µM: 18.2%; IC50: 407 ± 37.7 nM
COc1ccc([C@H]2C(C#N)=C(N)Oc3[nH]nc(C)c32)cc1OCc1ccc(Cl)cc1 [(R)-LZ77],67.5,inhibition at 0.1 µM: 30.4%; IC50: 261 ± 11.2 nM
"COc1cc(OCc2ccc(C(F)(F)F)cc2)cc(C2C(C#N)=C(N)Oc3[nH]nc(C)c32)c1 (centres unmarked) [Compound 4b, 6-Amino-4-(3-methoxy-5-((4-(trifluoromethyl)benzyl)oxy)phenyl)-3-methyl-1,4-dihydropyrano[2,3-c]pyrazole-5-carbonitrile]",14.1,
"COc1cc(OCc2ccc(Cl)cc2)cc(C2C(C#N)=C(N)Oc3[nH]nc(C)c32)c1 (centres unmarked) [Compound 4c, 6-Amino-4-(3-((4-chlorobenzyl)oxy)-5-methoxyphenyl)-3-methyl-1,4-dihydropyrano[2,3-c]pyrazole-5-carbonitrile]",43.4,
"COc1ccc(OC(=O)c2ccc(OC(F)(F)F)cc2)c(C2C(C#N)=C(N)Oc3[nH]nc(C)c32)c1 (centres unmarked) [Compound 8a, 2-(6-Amino-5-cyano-3-methyl-1,4-dihydropyrano[2,3-c]pyrazol-4-yl)-4-methoxyphenyl-4-(trifluoromethoxy)benzoate]",13.4,
"COc1ccc(OC(=O)c2ccc(C(F)(F)F)cc2)c(C2C(C#N)=C(N)Oc3[nH]nc(C)c32)c1 (centres unmarked) [Compound 8b, 2-(6-Amino-5-cyano-3-methyl-1,4-dihydropyrano[2,3-c]pyrazol-4-yl)-4-methoxyphenyl-4-(trifluoromethyl)benzoate]",39.1,
"COc1ccc(OC(=O)CCc2ccc(Cl)cc2)c(C2C(C#N)=C(N)Oc3[nH]nc(C)c32)c1 (centres unmarked) [Compound 8c, 2-(6-Amino-5-cyano-3-methyl-1,4-dihydropyrano[2,3-c]pyrazol-4-yl)-4-methoxyphenyl-3-(4-chlorophenyl)propanoate]",4.12,
"COc1ccc(OC(=O)CCCc2ccc(Cl)cc2)c(C2C(C#N)=C(N)Oc3[nH]nc(C)c32)c1 (centres unmarked) [Compound 8d, 2-(6-Amino-5-cyano-3-methyl-1,4-dihydropyrano[2,3-c]pyrazol-4-yl)-4-methoxyphenyl-4-(4-chlorophenyl)butanoate]",6.12,
"COc1ccc(COc2cc(OC)ccc2C2C(C#N)=C(N)Oc3[nH]nc(C)c32)cc1 (centres unmarked) [Compound 11a, 6-Amino-4-(4-methoxy-2-((4-methoxybenzyl)oxy)phenyl)-3-methyl-1,4-dihydropyrano[2,3-c]pyrazole-5-carbonitrile]",27,
"COc1ccc(C2C(C#N)=C(N)Oc3[nH]nc(C)c32)c(OCc2ccccc2)c1 (centres unmarked) [Compound 11b, 6-Amino-4-(2-(benzyloxy)-4-methoxyphenyl)-3-methyl-1,4-dihydropyrano [2,3-c] pyrazole-5-carbonitrile]",14.3,
"COc1ccc(C2C(C#N)=C(N)Oc3[nH]nc(C)c32)c(OCc2ccc(Cl)cc2)c1 (centres unmarked) [Compound 11c, 6-Amino-4-(2-((4-chlorobenzyl)oxy)-4-methoxyphenyl)-3-methyl-1,4-dihydropyrano[2,3-c]pyrazole-5-carbonitrile]",29,
"COc1ccc(OCc2ccccc2)c(C2C(C#N)=C(N)Oc3[nH]nc(C)c32)c1 (centres unmarked) [Compound 11d, 6-Amino-4-(2-(benzyloxy)-5-methoxyphenyl)-3-methyl-1,4-dihydropyrano [2,3-c] pyrazole-5-carbonitrile]",17.7,
"COc1ccc(COc2ccc(OC)cc2C2C(C#N)=C(N)Oc3[nH]nc(C)c32)cc1 (centres unmarked) [Compound 11e, 6-Amino-4-(5-methoxy-2-((4-methoxybenzyl)oxy)phenyl)-3-methyl-1,4-dihydropyrano[2,3-c]pyrazole-5-carbonitrile]",48,inhibition at 0.1 µM: 17.5%; IC50: 458 ± 16.2 nM
"COc1ccc(OCc2ccc(Cl)cc2)c(C2C(C#N)=C(N)Oc3[nH]nc(C)c32)c1 (centres unmarked) [Compound 11f, 6-Amino-4-(2-((4-chlorobenzyl)oxy)-5-methoxyphenyl)-3-methyl-1,4-dihydropyrano[2,3-c]pyrazole-5-carbonitrile]",79.2,inhibition at 0.1 µM: 48.1%; IC50: 115 ± 1.3 nM
"COc1ccc(OCc2ccc(F)cc2)c(C2C(C#N)=C(N)Oc3[nH]nc(C)c32)c1 (centres unmarked) [Compound 11g, 6-Amino-4-(2-((4-fluorobenzyl)oxy)-5-methoxyphenyl)-3-methyl-1,4-dihydropyrano[2,3-c]pyrazole-5-carbonitrile]",44.4,inhibition at 0.1 µM: 15.1%; IC50: 807 ± 15.3 nM
"COc1ccc(OCc2ccc(OC(F)(F)F)cc2)c(C2C(C#N)=C(N)Oc3[nH]nc(C)c32)c1 (centres unmarked) [Compound 11i, 6-Amino-4-(5-methoxy-2-((4-(trifluoromethoxy)benzyl)oxy)phenyl)-3-methyl-1,4-dihydropyrano[2,3-c]pyrazole-5-carbonitrile]",48.8,
"Cc1n[nH]c2c1C(c1cc(C(C)(C)C)ccc1OCc1ccc(C(F)(F)F)cc1)C(C#N)=C(N)O2 (centres unmarked) [Compound 11j, 6-Amino-4-(5-(tert-butyl)-2-((4-(trifluoromethyl)benzyl)oxy)phenyl)-3-methyl-1,4-dihydropyrano[2,3-c]pyrazole-5-carbonitrile]",0,Inhibition Ratio (%) 0.5 μM: no inhibition
"Cc1ccc(OCc2ccc(C(F)(F)F)cc2)c(C2C(C#N)=C(N)Oc3[nH]nc(C)c32)c1 (centres unmarked) [Compound 11k, 6-Amino-3-methyl-4-(5-methyl-2-((4-(trifluoromethyl)benzyl)oxy)phenyl)-1,4-dihydropyrano[2,3-c]pyrazole-5-carbonitrile]",72,inhibition at 0.1 µM: 38.3%; IC50: 154 ± 3.3 nM
"Cc1n[nH]c2c1C(c1cc(OCc3ccc(C(F)(F)F)cc3)ccc1OCc1ccc(C(F)(F)F)cc1)C(C#N)=C(N)O2 (centres unmarked) [Compound 11l, 6-Amino-4-(2,5-bis((4-(trifluoromethyl)benzyl)oxy)phenyl)-3-methyl-1,4-dihydropyrano[2,3-c]pyrazole-5-carbonitrile]",13.4,
"Cc1n[nH]c2c1C(c1cc(O)ccc1OCc1ccc(C(F)(F)F)cc1)C(C#N)=C(N)O2 (centres unmarked) [Compound 11m, 6-Amino-4-(5-hydroxy-2-((4-(trifluoromethyl)benzyl)oxy)phenyl)-3-methyl-1,4-dihydropyrano[2,3-c]pyrazole-5-carbonitrile]",0,Inhibition Ratio (%) 0.5 μM: no inhibition
"COc1ccc(OCCc2ccc(C(F)(F)F)cc2)c(C2C(C#N)=C(N)Oc3[nH]nc(C)c32)c1 (centres unmarked) [Compound 11n, 6-Amino-4-(5-methoxy-2-(4-(trifluoromethyl)phenethoxy)phenyl)-3-methyl-1,4-dihydropyrano[2,3-c]pyrazole-5-carbonitrile]",20.7,
"COc1ccc(OCCCc2ccc(C(F)(F)F)cc2)c(C2C(C#N)=C(N)Oc3[nH]nc(C)c32)c1 (centres unmarked) [Compound 11o, 6-Amino-4-(5-methoxy-2-(3-(4-(trifluoromethyl)phenyl)propoxy)phenyl)-3-methyl-1,4-dihydropyrano[2,3-c]pyrazole-5-carbonitrile]",8.2,
"Cc1n[nH]c2c1C(c1cc(OC(F)(F)F)ccc1OCc1ccc(C(F)(F)F)cc1)C(C#N)=C(N)O2 (centres unmarked) [Compound 11p, 6-Amino-3-methyl-4-(5-(trifluoromethoxy)-2-((4-(trifluoromethyl)benzyl)oxy)phenyl)-1,4-dihydropyrano[2,3-c]pyrazole-5-carbonitrile]",17.4,
"Cc1n[nH]c2c1C(c1cc(OC(F)F)ccc1OCc1ccc(C(F)(F)F)cc1)C(C#N)=C(N)O2 (centres unmarked) [Compound 11q, 6-Amino-4-(5-(difluoromethoxy)-2-((4-(trifluoromethyl)benzyl)oxy)phenyl)-3-methyl-1,4-dihydropyrano[2,3-c]pyrazole-5-carbonitrile]",6.6,
